Publication PMC10959927, “Platinum iodido drugs show potential anti-tumor activity, affecting cancer cell metabolism and inducing ROS and senescence in gastrointestinal cancer cells” (Communications Biology, 2024)
Values joined by “and” are separate entries in the source; they are usually repeats but may differ in a detail not shown here. Identical values can stand only once.

What was measured:
Type in all cases: cell-based, human
MKN45 cells [1] = assay: Seahorse XF OCR, ECAR and energy map; parameters: Basal resp. / Maximal resp. / SRC: unit not given here; conditions: MKN45, IC50 24 h
Experimental: (§1) Oxygen Consumption Rate (OCR), Extra Cellular Acidification Rate (ECAR) and Energy map measurements. Cells were plated in XF HS Miniplates (Seahorse Bioscience) at a cellular density of 1 × 10^4 cells/well and incubated overnight. […] After an OCR baseline measurement, the minimum oxygen consumption was determined by adding 1.5 µM oligomycin (O) and the maximal respiration rate was assessed by adding 1 µM carbonyl cyanide p-trifluoro methoxyphenylhydrazone (FCCP, F). At the end of the experiment, the non-mitochondrial oxygen consumption was evaluated by adding both 0.5 µM rotenone (R) and antimycin (A). Experiments were run in a XF HS Mini analyzer (Seahorse Agilent), and raw data were normalized to total protein using a BCA protein assay kit (Cat. no. 23225, Thermo Scientific).

PANC1 cells [2] = assay: Seahorse XF OCR, ECAR and energy map; parameters: Basal resp. / Maximal resp. / SRC: unit not given here
Experimental: as §1

MKN45 cells [3] = assay: ATP determination assay (bioluminescence); conditions: replicates
Experimental: (§2) ATP determination assay. […] The analysis was performed using the ATP Bioluminescense Assay Kit CLS II (Cat. no. 11699695001, Roche) according to the manufacturer’s instructions. […] Data were normalized to total protein using the BCA protein assay kit (Thermo Scientific).

PANC1 cells [4] = assay: ATP determination assay (bioluminescence); conditions: replicates
Experimental: as §2

AGS cells = assay: ATP determination assay (bioluminescence); conditions: replicates
Experimental: as §2

CC(C)[NH][Pt@SP1]([I])([I])[NH]C(C)C [I6, cis-[PtI2(isopropylamine)2]]
OCR (MKN45 cells [1]; time 14.51 min (I5) / 14.5 min (I6)): 135.932 pmoles/min/µg protein and 195.066 pmoles/min/µg protein and 199.064 pmoles/min/µg protein
OCR (MKN45 cells [1]; time 21.06 min (I5) / 21.09 min (I6)): 69.6082 pmoles/min/µg protein and 82.0209 pmoles/min/µg protein and 78.1047 pmoles/min/µg protein
OCR (MKN45 cells [1]; time 27.57 min (I5) / 27.59 min (I6)): 57.4221 pmoles/min/µg protein and 74.9291 pmoles/min/µg protein and 73.3602 pmoles/min/µg protein
OCR (MKN45 cells [1]; time 34.08 min (I5) / 34.07 min (I6)): 57.8854 pmoles/min/µg protein and 73.9423 pmoles/min/µg protein and 73.7207 pmoles/min/µg protein
OCR (MKN45 cells [1]; time 40.66 min (I5) / 40.62 min (I6)): 219.523 pmoles/min/µg protein and 319.315 pmoles/min/µg protein and 325.525 pmoles/min/µg protein
OCR (MKN45 cells [1]; time 53.68 min (I5) / 53.58 min (I6)): 193.975 pmoles/min/µg protein and 265.77 pmoles/min/µg protein and 274.483 pmoles/min/µg protein
OCR (MKN45 cells [1]; time 60.27 min (I5) / 60.14 min (I6)): 39.9791 pmoles/min/µg protein and 45.1028 pmoles/min/µg protein and 42.2414 pmoles/min/µg protein
OCR (MKN45 cells [1]; time 66.75 min (I5) / 66.62 min (I6)): 39.1246 pmoles/min/µg protein and 45.4375 pmoles/min/µg protein and 44.5027 pmoles/min/µg protein
OCR (MKN45 cells [1]; time 73.23 min (I5) / 73.1 min (I6)): 38.1003 pmoles/min/µg protein and 46.0211 pmoles/min/µg protein and 46.1344 pmoles/min/µg protein
ECAR, Mean (energy map) (PANC1 cells [2]; PANC1 (with I5)): 7.18 mpH/min/absorbance
OCR, Mean (energy map) (PANC1 cells [2]; PANC1 (with I5)): 8.75 pmol/min/absorbance
ECAR (energy map) (PANC1 cells [2]; PANC1 (with I6)): 32.52 mpH/min/absorbance
ECAR, Mean (energy map) (PANC1 cells [2]; PANC1 (with I6)): 146.969 mpH/min/absorbance
OCR (energy map) (PANC1 cells [2]; PANC1 (with I6)): 147 pmol/min/absorbance
OCR, Mean (energy map) (PANC1 cells [2]; PANC1 (with I6)): 32.5207 pmol/min/absorbance
ATP-product. coupled resp. (PANC1 cells [2]; PANC1, IC50 24 h): 76.46 and 74.62 and 73.2
Basal resp. (PANC1 cells [2]; PANC1, IC50 24 h): 102.88 and 97.93 and 95.39
Maximal resp. (PANC1 cells [2]; PANC1, IC50 24 h): 174.57 and 152.73 and 164.59
SRC (PANC1 cells [2]; PANC1, IC50 24 h): 71.69 and 54.8 and 69.2
effect on ECAR (PANC1 cells [2]; PANC1, IC50 24 h): no apparent effect
OCR (PANC1 cells [2]; PANC1, IC50 24 h, time 1.53 min (I5) / 1.53 min (I6)): 159.562 pmoles/min/µg protein and 146.086 pmoles/min/µg protein and 145.09 pmoles/min/µg protein
OCR (PANC1 cells [2]; PANC1, IC50 24 h, time 8.03 min (I5) / 8.01 min (I6)): 147.434 pmoles/min/µg protein and 135.357 pmoles/min/µg protein and 133.103 pmoles/min/µg protein
OCR (PANC1 cells [2]; PANC1, IC50 24 h, time 14.5 min (I5) / 14.5 min (I6)): 143.038 pmoles/min/µg protein and 132.495 pmoles/min/µg protein and 129.978 pmoles/min/µg protein
OCR (PANC1 cells [2]; PANC1, IC50 24 h, time 21.08 min (I5) / 21.07 min (I6)): 66.5745 pmoles/min/µg protein and 57.8765 pmoles/min/µg protein and 56.7739 pmoles/min/µg protein
OCR (PANC1 cells [2]; PANC1, IC50 24 h, time 27.58 min (I5) / 27.55 min (I6)): 66.0035 pmoles/min/µg protein and 58.3571 pmoles/min/µg protein and 57.0179 pmoles/min/µg protein
OCR (PANC1 cells [2]; PANC1, IC50 24 h, time 34.08 min (I5) / 34.04 min (I6)): 69.58 pmoles/min/µg protein and 62.2166 pmoles/min/µg protein and 61.4483 pmoles/min/µg protein
OCR (PANC1 cells [2]; PANC1, IC50 24 h, time 40.66 min (I5) / 40.6 min (I6)): 214.725 pmoles/min/µg protein and 187.294 pmoles/min/µg protein and 199.178 pmoles/min/µg protein
OCR (PANC1 cells [2]; PANC1, IC50 24 h, time 47.17 min (I5) / 47.09 min (I6)): 200.494 pmoles/min/µg protein and 175.489 pmoles/min/µg protein and 184.522 pmoles/min/µg protein
OCR (PANC1 cells [2]; PANC1, IC50 24 h, time 53.68 min (I5) / 53.58 min (I6)): 196.779 pmoles/min/µg protein and 170.973 pmoles/min/µg protein and 177.854 pmoles/min/µg protein
OCR (PANC1 cells [2]; PANC1, IC50 24 h, time 60.22 min (I5) / 60.14 min (I6)): 40.9467 pmoles/min/µg protein and 34.6667 pmoles/min/µg protein and 34.4666 pmoles/min/µg protein
OCR (PANC1 cells [2]; PANC1, IC50 24 h, time 66.71 min (I5) / 66.63 min (I6)): 41.5272 pmoles/min/µg protein and 35.8152 pmoles/min/µg protein and 35.5577 pmoles/min/µg protein
OCR (PANC1 cells [2]; PANC1, IC50 24 h, time 73.19 min (I5) / 73.15 min (I6)): 40.1567 pmoles/min/µg protein and 34.5626 pmoles/min/µg protein and 34.5904 pmoles/min/µg protein
ATP assay (MKN45 cells [3]): 5246 nmoles ATP/mg prot and 3320.9 nmoles ATP/mg prot and 18883.3 nmoles ATP/mg prot and 23272 nmoles ATP/mg prot and 3325.73 nmoles ATP/mg prot and 3863.84 nmoles ATP/mg prot and 4434 nmoles ATP/mg prot and 3684.47 nmoles ATP/mg prot and 4201.47 nmoles ATP/mg prot
ATP assay (PANC1 cells [4]): 7880 nmoles ATP/mg prot and 13332.3 nmoles ATP/mg prot and 3956 nmoles ATP/mg prot and 3277.42 nmoles ATP/mg prot and 6180.37 nmoles ATP/mg prot and 5189.49 nmoles ATP/mg prot and 6520 nmoles ATP/mg prot and 7744.41 nmoles ATP/mg prot and 6743.81 nmoles ATP/mg prot
ATP assay (AGS cells): 0.001 nmoles ATP/mg prot and 0.003 nmoles ATP/mg prot and 0.01 nmoles ATP/mg prot and 0 nmoles ATP/mg prot and 0.005 nmoles ATP/mg prot and 0.002 nmoles ATP/mg prot
